Reference: US10770169B2, “Method of providing a treatment to a subject based on a dynamic pathway map” (THE REGENTS OF THE UNIVERSITY OF CALIFORNIA, priority 2010, dated 2020)
Like-named read-outs stand apart in the source and are kept apart here.

Test system: panel of 55 breast cancer cell lines
Experiment: Cell growth inhibition assay (Cell Titer Glo, 72 h, 9 doses; GI50, TGI, LC50)
Type: cell-based, human
Settings: Homo sapiens, read-out: GI50 (converted)
[1] = AU565, AU565 cell line, censored GI50 values
[2] = BT-474, BT474 cell line, censored GI50 values
[3] = BT-483, BT483 cell line, censored GI50 values
[4] = BT-549, BT549 cell line, censored GI50 values
[5] = CAMA-1, CAMA1 cell line, censored GI50 values
[6] = HCC38, HCC38 cell line, censored GI50 values
[7] = HCC70, HCC70 cell line, censored GI50 values
[8] = HCC202, HCC202 cell line, censored GI50 values
[9] = HCC1187, HCC1187 cell line, censored GI50 values
[10] = HCC1419, HCC1419 cell line, censored GI50 values
[11] = HCC1428, HCC1428 cell line, censored GI50 values
[12] = HCC1500, HCC1500 cell line, censored GI50 values
[13] = HCC1806, HCC1806 cell line, censored GI50 values
[14] = HCC1937, HCC1937 cell line, censored GI50 values
[15] = HCC1954, HCC1954 cell line, censored GI50 values
[16] = HCC2185 cell line, censored GI50 values
[17] = HCC3153 cell line, censored GI50 values
[18] = MCF7, MCF7 cell line, censored GI50 values
[19] = MDA-MB-134-VI, MDAMB134VI cell line, censored GI50 values
[20] = MDA-MB-175-VII, MDAMB175VII cell line, censored GI50 values
[21] = MDA-MB-231, MDAMB231 cell line, censored GI50 values
[22] = MDA-MB-361, MDAMB361 cell line, censored GI50 values
[23] = MDA-MB-415, MDAMB415 cell line, censored GI50 values
[24] = MDA-MB-468, MDAMB468 cell line, censored GI50 values
[25] = SK-BR-3, SKBR3 cell line, censored GI50 values
[26] = SUM52PE, SUM52PE cell line, censored GI50 values
[27] = SUM149PT, SUM149PT cell line, censored GI50 values
[28] = SUM1315MO2, SUM1315MO2 cell line, censored GI50 values
[29] = SUM-159-PT, SUM159PT cell line, censored GI50 values
[30] = UACC-812, UACC812 cell line, censored GI50 values

COC1=C2C[C@@H](C)C[C@H](OC)[C@H](O)[C@@H](C)/C=C(\C)[C@H](OC(N)=O)[C@@H](OC)/C=C\C=C(/C)C(=O)NC(=CC1=O)C2=O [Geldanamycin]
GI50 (600MPE cell line, censored GI50 values): 38.9 nM
GI50 [1]: 51.3 nM
GI50 (AU565, cell line AU565): 51.3 nM
GI50 [2]: 14.5 nM
GI50 (BT-474, cell line BT474): 14.5 nM
GI50 [3]: 145 nM
GI50 (BT-483, cell line BT483): 145 nM
GI50 [4]: 5.5 nM
GI50 (BT-549, cell line BT549): 5.5 nM
GI50 [5]: 79.4 nM
GI50 (CAMA-1, cell line CAMA1): 79.4 nM
GI50 [6]: 28.8 nM
GI50 (HCC38, cell line HCC38): 28.8 nM
GI50 [7]: 93.3 nM
GI50 (HCC70, cell line HCC70): 93.3 nM
GI50 [8]: 1.48 nM
GI50 (HCC202, cell line HCC202): 1.48 nM
GI50 (HCC1143, HCC1143 cell line, censored GI50 values): 81.3 nM
GI50 (HCC1143, cell line HCC1143): 81.3 nM
GI50 [9]: 15.8 nM
GI50 (HCC1187, cell line HCC1187): 15.8 nM
GI50 (HCC1395, HCC1395 cell line, censored GI50 values): 61.7 nM
GI50 (HCC1395, cell line HCC1395): 61.7 nM
GI50 [10]: 32.4 nM
GI50 (HCC1419, cell line HCC1419): 32.4 nM
GI50 [11]: 31.6 nM
GI50 (HCC1428, cell line HCC1428): 31.6 nM
GI50 [12]: 155 nM
GI50 (HCC1500, cell line HCC1500): 155 nM
GI50 [13]: 75.9 nM
GI50 (HCC1806, cell line HCC1806): 75.9 nM
GI50 [14]: 29.5 nM
GI50 (HCC1937, cell line HCC1937): 29.5 nM
GI50 [15]: 7.24 nM
GI50 (HCC1954, cell line HCC1954): 7.24 nM
GI50 [16]: 18.2 nM
GI50 [17]: 67.6 nM
GI50 (LY2 cell line, censored GI50 values): 100 nM
GI50 [18]: 240 nM
GI50 (MCF7, cell line MCF7): 240 nM
GI50 [19]: 20.9 nM
GI50 [20]: 17.8 nM
GI50 [21]: 28.8 nM
GI50 (MDA-MB-231, cell line MDAMB231): 28.8 nM
GI50 [22]: 25.7 nM
GI50 (MDA-MB-361, cell line MDAMB361): 25.7 nM
GI50 [23]: 57.5 nM
GI50 (MDA-MB-415, cell line MDAMB415): 57.5 nM
GI50 (MDA-MB-436, MDAMB436 cell line, censored GI50 values): 148 nM
GI50 (MDA-MB-436, cell line MDAMB436): 148 nM
GI50 (MDA-MB-453, MDAMB453 cell line, censored GI50 values): 19.5 nM
GI50 (MDA-MB-453, cell line MDAMB453): 19.5 nM
GI50 [24]: 27.5 nM
GI50 (MDA-MB-468, cell line MDAMB468): 27.5 nM
GI50 [25]: 16.2 nM
GI50 (SK-BR-3, cell line SKBR3): 16.2 nM
GI50 [26]: 12 nM
GI50 (SUM52PE, cell line SUM52PE): 12 nM
GI50 [27]: 6.03 nM
GI50 (SUM149PT, cell line SUM149PT): 6.03 nM
GI50 (SUM185PE, SUM185PE cell line, censored GI50 values): 20 nM
GI50 (SUM185PE, cell line SUM185PE): 20 nM
GI50 [28]: 38 nM
GI50 [29]: 6.31 nM
GI50 (SUM-159-PT, cell line SUM159PT): 6.31 nM
GI50 [30]: 12.3 nM
GI50 (UACC-812, cell line UACC812): 12.3 nM
GI50 (UACC-893, UACC893 cell line, censored GI50 values): 11 nM
GI50 (UACC-893, cell line UACC893): 11 nM
GI50 (ZR-75-1, ZR751 cell line, censored GI50 values): 117 nM
GI50 (ZR-75-1, cell line ZR751): 117 nM
GI50 (ZR-75-30, ZR7530 cell line, censored GI50 values): 7.08 nM
GI50 (ZR-75-30, cell line ZR7530): 7.08 nM
GI50 (ZR-75B, ZR75B cell line, censored GI50 values): 93.3 nM
GI50 (ZR-75B, cell line ZR75B): 93.3 nM
GI50 (cell line 600MPE): 38.9 nM
GI50 (cell line HCC2185): 18.2 nM
GI50 (cell line HCC3153): 67.6 nM
GI50 (cell line LY2): 100 nM
GI50 (cell line MDAMB134V): 20.9 nM
GI50 (cell line MDAMB175V): 17.8 nM
GI50 (cell line SUM1315MO): 38 nM

CO[C@H]1C[C@@H]2CC[C@@H](C)[C@@](O)(O2)C(=O)C(=O)N2CCCC[C@H]2C(=O)O[C@H]([C@H](C)C[C@@H]2CC[C@@H](O)[C@H](OC)C2)CC(=O)[C@H](C)/C=C(\C)[C@@H](O)[C@@H](OC)C(=O)[C@H](C)C[C@H](C)/C=C/C=C/C=C/1C [Rapamycin]
GI50 [1]: 31.6 nM
GI50 (AU565, cell line AU565): 31.6 nM
GI50 (BT-20, BT20 cell line, censored GI50 values): 13.5 nM
GI50 (BT-20, cell line BT20): 13.5 nM
GI50 [2]: 15.1 nM
GI50 (BT-474, cell line BT474): 15.1 nM
GI50 [3]: 1.66 nM
GI50 (BT-483, cell line BT483): 1.66 nM
GI50 [4]: 33100 nM
GI50 (BT-549, cell line BT549): 33100 nM
GI50 [5]: 15.1 nM
GI50 (CAMA-1, cell line CAMA1): 15.1 nM
GI50 [6]: 33.9 nM
GI50 (HCC38, cell line HCC38): 33.9 nM
GI50 [7]: 120 nM
GI50 (HCC70, cell line HCC70): 120 nM
GI50 [8]: 5.01 nM
GI50 (HCC202, cell line HCC202): 5.01 nM
GI50 [9]: 32.4 nM
GI50 (HCC1187, cell line HCC1187): 32.4 nM
GI50 [10]: 4.37 nM
GI50 (HCC1419, cell line HCC1419): 4.37 nM
GI50 [11]: 51.3 nM
GI50 (HCC1428, cell line HCC1428): 51.3 nM
GI50 [12]: 93300 nM
GI50 (HCC1500, cell line HCC1500): 93300 nM
GI50 [13]: 66100 nM
GI50 (HCC1806, cell line HCC1806): 66100 nM
GI50 [14]: 1230 nM
GI50 (HCC1937, cell line HCC1937): 1230 nM
GI50 [15]: 3.55 nM
GI50 (HCC1954, cell line HCC1954): 3.55 nM
GI50 [16]: 1.62 nM
GI50 [17]: 5620 nM
GI50 [18]: 145 nM
GI50 (MCF7, cell line MCF7): 145 nM
GI50 [19]: 6.76 nM
GI50 (MDA-MB-157, cell line MDAMB157): 166000 nM
GI50 [20]: 3.72 nM
GI50 [21]: 3550 nM
GI50 (MDA-MB-231, cell line MDAMB231): 3550 nM
GI50 [22]: 741 nM
GI50 (MDA-MB-361, cell line MDAMB361): 741 nM
GI50 [23]: 2.09 nM
GI50 (MDA-MB-415, cell line MDAMB415): 2.09 nM
GI50 (MDA-MB-436, cell line MDAMB436): 166000 nM
GI50 [24]: 2820 nM
GI50 (MDA-MB-468, cell line MDAMB468): 2820 nM
GI50 [25]: 60.3 nM
GI50 (SK-BR-3, cell line SKBR3): 60.3 nM
GI50 (SUM44PE cell line, censored GI50 values): 0.55 nM
GI50 [26]: 3.02 nM
GI50 (SUM52PE, cell line SUM52PE): 3.02 nM
GI50 [27]: 9330 nM
GI50 (SUM149PT, cell line SUM149PT): 9330 nM
GI50 (SUM225CWN, SUM225CWN cell line, censored GI50 values): 16.6 nM
GI50 (SUM225CWN, cell line SUM225CWN): 16.6 nM
GI50 [28]: 3310 nM
GI50 [29]: 724 nM
GI50 (SUM-159-PT, cell line SUM159PT): 724 nM
GI50 (T47D, T47D cell line, censored GI50 values): 490 nM
GI50 (T47D, cell line T47D): 490 nM
GI50 [30]: 46.8 nM
GI50 (UACC-812, cell line UACC812): 46.8 nM
GI50 (UACC-893, cell line UACC893): 166000 nM
GI50 (cell line HCC2185): 1.62 nM
GI50 (cell line HCC3153): 5620 nM
GI50 (cell line MDAMB134V): 6.76 nM
GI50 (cell line MDAMB175V): 3.72 nM
GI50 (cell line SUM44PE): 0.55 nM
GI50 (cell line SUM1315MO): 3310 nM
